From patent publication US20240173419A1, “CDK2 DEGRADERS AND USES THEREOF” (Kymera Therapeutics, Inc., priority 2022, published 2024)

Target: T1, CDK2 (Homo sapiens, UniProt P24941)
T1 construct: endogenous in cells; host or cells: MKN1 cells
Assay: CDK2 degradation in MKN1 cells (AlphaLISA)
Type: cell-based
Set-up: key to CDK2 degradation 14 h: Mean external-Abs DC50 (nM): A (<100 nM); B (≥100-500 nM); C (>500-1000 nM); D (>1000 nM); E (not achieved)
Details: 14 h incubation; for DC50: read-out: CDK2 degradation 14 h: Mean external-Abs DC50
Outline: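 MKN1 cells (2e4/well) treated 14 h at 37° C with 11-point 1:5 dilutions (0.001 nM-10 μM, 0.1% DMSO). CDK2 in lysates quantified by AlphaLISA, no-cell background subtracted; DC50 from four-parameter logistic fit.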

Structure (SMILES)	CDK2 degradation 14 h: Average Dmax %	DC50 [nM]	CDK2 degradation 14 h: Mean external-Abs DC50 (nM)
Cc1cc(S(=O)(=O)C2CC3(CCN(CC4CCN(c5ccc6c(N7CCC(=O)NC7=O)nn(C)c6c5F)CC4)CC3)C2)ccc1Nc1ncc2cc(Cl)c(=O)n(C3CCCC3)c2n1 [I-325]	A (A (>75% o))	< 100	
Cc1cc(S(=O)(=O)C2CC3(CCN(CC4CCN(c5ccc(NC6CCC(=O)NC6=O)c(Cl)c5)CC4)CC3)C2)ccc1Nc1ncc2cc(Cl)c(=O)n(C3CCCC3)c2n1 (stereo not shown) [I-329]	A (A (>75% o))	< 100	
Cc1cc(S(=O)(=O)C2CC3(CCN(CC4CCN(c5cccc(NC6CCC(=O)NC6=O)c5C)CC4)CC3)C2)ccc1Nc1ncc2cc(Cl)c(=O)n(C3CCCC3)c2n1 (stereo not shown) [I-332]	A (A (>75% o))	100 to 500	
Cc1cc(S(=O)(=O)N2CCC(CN(C)C3CCN(c4cccc5c4n(C)c(=O)n5C4CCC(=O)NC4=O)CC3)CC2)ccc1Nc1ncc2cc(C(F)(F)F)c(=O)n(C3CCCC3)c2n1 (stereo not shown) [I-341]	A (A (>75% o))	< 100	
Cc1cc(S(=O)(=O)N2CCC(CN(C)C3CCN(c4cccc5c4n(C)c(=O)n5C4CCC(=O)NC4=O)CC3)CC2)ccc1Nc1ncc2cc(F)c(=O)n(C3CCCC3)c2n1 (stereo not shown) [I-342]	A (A (>75% o))	< 100	
Cc1cc(S(=O)(=O)NC2CC3(CCN(CC4CCN(c5cccc6c5n(C)c(=O)n6C5CCC(=O)NC5=O)CC4)CC3)C2)ccc1Nc1ncc2cc(Cl)c(=O)n(C3CCCC3)c2n1 (stereo not shown) [I-347]	A (A (>75% o))	< 100	
Cc1cc(S(=O)(=O)N2CCC(N(CC(F)F)CC3CCN(c4cccc5c4n(C)c(=O)n5C4CCC(=O)NC4=O)CC3)CC2)ccc1Nc1ncc2cc(Cl)c(=O)n(C3CCCC34CC4)c2n1 (stereo not shown) [I-353]	D (D (<25%))	> 1000	
Cc1cc(S(=O)(=O)N2CCC(CN(CC(F)(F)F)C3CCN(c4cccc5c4n(C)c(=O)n5C4CCC(=O)NC4=O)CC3)CC2)ccc1Nc1ncc2cc(Cl)c(=O)n(C3CCCC34CC4)c2n1 (stereo not shown) [I-354]	D (D (<25%))	> 1000	
Cc1cc(S(=O)(=O)N2CCC(N(C)CC3CCN(c4cccc5c4n(C)c(=O)n5C4CCC(=O)NC4=O)CC3)C(F)(F)C2)ccc1Nc1ncc2cc(Cl)c(=O)n(C3CCCC34CC4)c2n1 (stereo not shown) [I-355]	D (D (<25%))	> 1000	
Cc1cc(S(=O)(=O)N2CCC(CN(CC(F)F)C3CCN(c4cccc5c4n(C)c(=O)n5C4CCC(=O)NC4=O)CC3)CC2)ccc1Nc1ncc2cc(Cl)c(=O)n(C3CCCC34CC4)c2n1 (stereo not shown) [I-356]	D (D (<25%))	> 1000	
Cc1cc(S(=O)(=O)N2CCC(N(C)CC3(F)CCN(c4cccc5c4n(C)c(=O)n5C4CCC(=O)NC4=O)CC3)CC2)ccc1Nc1ncc2cc(Cl)c(=O)n(C3CCCC34CC4)c2n1 (stereo not shown) [I-357]	B (B (>50% -75%))		E
Cc1cc(S(=O)(=O)N2CCC(F)(CN(C)C3CCN(c4cccc5c4n(C)c(=O)n5C4CCC(=O)NC4=O)CC3)CC2)ccc1Nc1ncc2cc(Cl)c(=O)n(C3CCCC34CC4)c2n1 (stereo not shown) [I-358]	B (B (>50% -75%))	500 to 1000	
Cc1cc(S(=O)(=O)N2CCC(N(C)CC3CCN(c4cccc5c4n(C)c(=O)n5C4CCC(=O)NC4=O)CC3)CC2)ccc1Nc1ncc2cc(Cl)c(=O)n(C3CCCC34CC4)c2n1 (stereo not shown) [I-359]	A (A (>75% o))	< 100	
COc1ccc2c(c1N1CCC(N(C)CC3CCN(S(=O)(=O)c4ccc(Nc5ncc6cc(Cl)c(=O)n(C(C)C)c6n5)c(C)c4)CC3)CC1)n(C)c(=O)n2C1CCC(=O)NC1=O (stereo not shown) [I-379]	A (A (>75% o))	< 100	
Cc1cc(S(=O)(=O)N2CCC3(CCN(c4cccc5c4n(C)c(=O)n5C4CCC(=O)NC4=O)CC3)CC2)ccc1Nc1ncc2cc(Cl)c(=O)n(C(C)C)c2n1 (stereo not shown) [I-380]	D (D (<25%))	> 1000	
Cc1cc(S(=O)(=O)N2CCC3(CCN(CC4CCN(c5ccc6c(c5)n(C)c(=O)n6C5CCC(=O)NC5=O)CC4)CC3)CC2)ccc1Nc1ncc2cc(Cl)c(=O)n(C3CCCC3)c2n1 (stereo not shown) [I-381]	A (A (>75% o))	< 100	
Cc1cc(S(=O)(=O)N2CCC(N3CCC(CN(C)c4cccc5c4n(C)c(=O)n5C4CCC(=O)NC4=O)CC3)CC2)ccc1Nc1ncc2cc(C(F)F)c(=O)n(C3CCCC34CC4)c2n1 (stereo not shown) [I-383]	A (A (>75% o))	< 100	
Cc1cc(S(=O)(=O)N2CCN(CCC3CCN(c4cccc5c4n(C)c(=O)n5C4CCC(=O)NC4=O)CC3)CC2)ccc1Nc1ncc2cc(Cl)c(=O)n(C(C)C)c2n1 (stereo not shown) [I-393]	B (B (>50% -75%))	100 to 500	
Cc1cc(S(=O)(=O)NCCN2CCN(CC3CCN(c4ccc5c(c4)n(C)c(=O)n5C4CCC(=O)NC4=O)CC3)CC2)ccc1Nc1ncc2cc(Cl)c(=O)n(C(C)C)c2n1 (stereo not shown) [I-397]	A (A (>75% o))	< 100	

Structure (SMILES)	CDK2 degradation 14 h: Average Dmax %	DC50 [nM]	CDK2 degradation 14 h: Mean external-Abs DC50 (nM)
Cc1cc(S(=O)(=O)NCCCN2CCN(C3CCN(c4ccc5c(c4)n(C)c(=O)n5C4CCC(=O)NC4=O)CC3)CC2)ccc1Nc1ncc2cc(Cl)c(=O)n(C(C)C)c2n1 (stereo not shown) [I-398]	A (A (>75% o))	< 100	
Cc1cc(S(=O)(=O)NCCCN2CCN(CC3CCN(c4ccc5c(c4)n(C)c(=O)n5C4CCC(=O)NC4=O)CC3)CC2)ccc1Nc1ncc2cc(Cl)c(=O)n(C(C)C)c2n1 (stereo not shown) [I-400]	A (A (>75% o))	< 100	
Cc1cc(S(=O)(=O)NCCOCCOCCNC(=O)COc2ccc(C3CCC(=O)NC3=O)cc2)ccc1Nc1ncc2cc(Cl)c(=O)n(C3CCCC3)c2n1 (stereo not shown) [I-401]	B (B (>50% -75%))	< 100	
Cc1cc(S(=O)(=O)NCCOCC2CCN(c3ccc(N4CCC(=O)NC4=O)cc3)CC2)ccc1Nc1ncc2cc(Cl)c(=O)n(C3CCCC3)c2n1 [I-409]	C (C (>25% -50%))	> 1000	
Cc1cc(S(=O)(=O)NCCCCCC2CCN(c3ccc(N4CCC(=O)NC4=O)cc3)CC2)ccc1Nc1ncc2cc(Cl)c(=O)n(C3CCCC3)c2n1 [I-410]	C (C (>25% -50%))	> 1000	
Cc1cc(S(=O)(=O)NCCCCC2CCN(c3ccc(N4CCC(=O)NC4=O)cc3)CC2)ccc1Nc1ncc2cc(Cl)c(=O)n(C3CCCC3)c2n1 [I-411]	C (C (>25% -50%))	> 1000	
Cc1cc(S(=O)(=O)NCCCC2CCN(c3ccc(N4CCC(=O)NC4=O)cc3)CC2)ccc1Nc1ncc2cc(Cl)c(=O)n(C3CCCC3)c2n1 [I-412]	C (C (>25% -50%))	> 1000	
Cc1cc(S(=O)(=O)NCCC2CCN(c3ccc(N4CCC(=O)NC4=O)cc3)CC2)ccc1Nc1ncc2cc(Cl)c(=O)n(C3CCCC3)c2n1 [I-413]	B (B (>50% -75%))	> 1000	
Cc1cc(S(=O)(=O)N2CCC(CN(C)C3CCN(c4cccn5c(N6CCC(=O)NC6=O)cnc45)CC3)CC2)ccc1Nc1ncc2cc(Cl)c(=O)n(C3CCCC3)c2n1 [I-414]	B (B (>50% -75%))	100 to 500	
Cc1cc(S(=O)(=O)N2CCC(CN(C)C3CCN(c4cccc5c(N6CCC(=O)NC6=O)cncc45)CC3)CC2)ccc1Nc1ncc2cc(Cl)c(=O)n(C3CCCC3)c2n1 [I-416]	A (A (>75% o))	< 100	
Cc1cc(S(=O)(=O)N2CC3(CC(OCCN4CCC(c5ccc6c(c5)n(C)c(=O)n6C5CCC(=O)NC5=O)CC4)C3)C2)ccc1Nc1ncc2cc(Cl)c(=O)n(C3CCCC3)c2n1 (stereo not shown) [I-418]	C (C (>25% -50%))	> 1000	
Cc1cc(S(=O)(=O)N[C@H]2CC[C@H](OCCN3CCC(c4ccc5c(c4)n(C)c(=O)n5C4CCC(=O)NC4=O)CC3)CC2)ccc1Nc1ncc2cc(Cl)c(=O)n(C3CCCC3)c2n1 (stereo partly shown) [I-419]	A (A (>75% o))	< 100	
Cc1cc(S(=O)(=O)NCCCN(C)C2CCN(c3cccc4c3n(C)c(=O)n4C3CCC(=O)NC3=O)CC2)ccc1Nc1ncc2cc(Cl)c(=O)n(C3CCCC3)c2n1 (stereo not shown) [I-420]	A (A (>75% o))	< 100	
Cc1cc(S(=O)(=O)N2CC(CN(C)C3CCN(c4cccc5c4n(C)c(=O)n5C4CCC(=O)NC4=O)CC3)C2)ccc1Nc1ncc2cc(Cl)c(=O)n(C3CCCC3)c2n1 (stereo not shown) [I-421]	B (B (>50% -75%))	100 to 500	
Cc1cc(S(=O)(=O)N2CCC(CN(C)C3CN(c4cccc5c4n(C)c(=O)n5C4CCC(=O)NC4=O)C3)CC2)ccc1Nc1ncc2cc(Cl)c(=O)n(C3CCCC3)c2n1 (stereo not shown) [I-422]	C (C (>25% -50%))		E
Cc1cc(S(=O)(=O)N2CCC(CCN3CCN(c4cccc5c4n(C)c(=O)n5C4CCC(=O)NC4=O)CC3)CC2)ccc1Nc1ncc2cc(Cl)c(=O)n(C3CCCC3)c2n1 (stereo not shown) [I-423]	A (A (>75% o))	< 100	
Cc1cc(S(=O)(=O)NCCO[C@H]2CC[C@H](CN3CCC(c4ccc5c(c4)n(C)c(=O)n5C4CCC(=O)NC4=O)CC3)CC2)ccc1Nc1ncc2cc(C(F)F)c(=O)n(C(C)C)c2n1 (stereo partly shown) [I-428]	A (A (>75% o))	< 100	
Cc1cc(S(=O)(=O)NCCO[C@H]2C[C@H](CN3CCC(c4ccc5c(c4)n(C)c(=O)n5C4CCC(=O)NC4=O)CC3)C2)ccc1Nc1ncc2cc(Cl)c(=O)n(C3CCCC3)c2n1 (stereo partly shown) [I-429]	A (A (>75% o))	< 100	
Cc1cc(S(=O)(=O)NCCO[C@H]2CC[C@H](CN3CC(c4ccc5c(c4)n(C)c(=O)n5C4CCC(=O)NC4=O)C3)CC2)ccc1Nc1ncc2cc(Cl)c(=O)n(C3CCCC3)c2n1 (stereo partly shown) [I-430]	A (A (>75% o))	< 100	
